ChEMBL document CHEMBL1133798, “Potent and selective bicyclic lactam inhibitors of thrombin. Part 4: transition state inhibitors” (Bioorg Med Chem Lett, 2001)
pIC50, pKi: −log10 of the molar value.

Experiments:
Prothrombin = Prothrombin (Homo sapiens, UniProt P00734); experiment: In vitro activity against human alpha thrombin was determined
Rattus norvegicus [1] = species on record: Rattus norvegicus; experiment: Activated partial thromboplastin time was measured in rat arterial thrombosis model; format: functional
Rattus norvegicus [2] = species on record: Rattus norvegicus; experiment: Mean occulation time was measured in rat arterial thrombosis model; format: functional
Rattus norvegicus [3] = species on record: Rattus norvegicus; experiment: Thrombin time was measured in rat arterial thrombosis model; format: functional
Serine protease 1 = Serine protease 1 (Homo sapiens, UniProt P07477); experiment: In vitro activity against human alpha trypsin was determined
Serine protease 1, sequence (P07477 whole entry): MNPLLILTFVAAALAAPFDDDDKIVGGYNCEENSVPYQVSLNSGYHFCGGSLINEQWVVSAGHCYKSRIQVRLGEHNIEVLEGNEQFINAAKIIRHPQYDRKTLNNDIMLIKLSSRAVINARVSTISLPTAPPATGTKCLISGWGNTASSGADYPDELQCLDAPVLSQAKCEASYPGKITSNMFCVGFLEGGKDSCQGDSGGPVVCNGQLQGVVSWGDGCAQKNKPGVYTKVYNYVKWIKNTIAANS

[4] = Oral bioavailability in rat (dose 30 mg/kg); format: ADME, organism-based; settings: in vivo

## CNC(=O)C(=O)C(NC(=O)[C@@H]1CC[C@H]2CN(S(=O)(=O)Cc3ccccc3)CC(=O)N21)[C@H]1CC[C@H](N)CC1 (some centres undefined)
Prothrombin
  pKi: 9.48
Rattus norvegicus [1]
  APTT: 47 s
Rattus norvegicus [2]
  MOT: 20 min
Rattus norvegicus [3]
  TT: 999 s
Serine protease 1
  pKi: 5.62

## N[C@H]1CC[C@H](C(NC(=O)[C@@H]2CC[C@H]3CN(S(=O)(=O)Cc4ccccc4)CC(=O)N32)C(=O)C(=O)O)CC1 (some centres undefined)
[4]
  bioavailability: 0.4%
Prothrombin
  pKi: 10.05
Rattus norvegicus [1]
  APTT: 54 s
Rattus norvegicus [2]
  MOT: >60 min
Rattus norvegicus [3]
  TT: 938 s
Serine protease 1
  pKi: 5.66

## N[C@H]1CC[C@H](C(NC(=O)[C@@H]2CC[C@H]3CN(S(=O)(=O)Cc4ccccc4)CC(=O)N32)C(=O)c2nc3ccccc3s2)CC1 (some centres undefined)
[4]
  bioavailability: 0.6%
Prothrombin
  pKi: 9.14
Rattus norvegicus [1]
  APTT: 25 s
Rattus norvegicus [2]
  MOT: >60 min
Rattus norvegicus [3]
  TT: 339 s
Serine protease 1
  pKi: 5.85

## Cc1nc(C(=O)C(NC(=O)[C@@H]2CC[C@H]3CN(S(=O)(=O)Cc4ccccc4)CC(=O)N32)[C@H]2CC[C@H](N)CC2)sc1C(=O)O (some centres undefined)
[4]
  bioavailability: 0.4%
Prothrombin
  pKi: 7.10
Rattus norvegicus [1]
  APTT: 20 s
Rattus norvegicus [2]
  MOT: 16 min
Rattus norvegicus [3]
  TT: 99 s
Serine protease 1
  pKi: 4.19

## CCCCOC(=O)C(=O)C(NC(=O)[C@@H]1CC[C@H]2CN(S(=O)(=O)Cc3ccccc3)CC(=O)N21)[C@H]1CC[C@H](N)CC1 (some centres undefined)
[4]
  bioavailability: 0.7%
Prothrombin
  pIC50: 10.00
Rattus norvegicus [1]
  APTT: 53 s
Rattus norvegicus [2]
  MOT: 47 min
Rattus norvegicus [3]
  TT: 883 s
Serine protease 1
  pIC50: 6.26

## N[C@H]1CC[C@H](C(NC(=O)[C@@H]2CC[C@H]3CN(S(=O)(=O)Cc4ccccc4)CC(=O)N32)C(=O)c2nccs2)CC1 (some centres undefined)
[4]
  bioavailability: 1.8%
Prothrombin
  pKi: 8.49
Rattus norvegicus [1]
  APTT: 66 s
Rattus norvegicus [2]
  MOT: > 60 min
Rattus norvegicus [3]
  TT: 829 s
Serine protease 1
  pKi: 5.10

## COC(=O)C(=O)C(NC(=O)[C@@H]1CC[C@H]2CN(S(=O)(=O)Cc3ccccc3)CC(=O)N21)[C@H]1CC[C@H](N)CC1 (some centres undefined)
[4]
  bioavailability: 1.1%
Prothrombin
  pKi: 9.89
Rattus norvegicus [1]
  APTT: 46 s
Rattus norvegicus [2]
  MOT: >60 min
Rattus norvegicus [3]
  TT: 999 s

## N[C@H]1CC[C@H](C(NC(=O)[C@@H]2CC[C@H]3CN(S(=O)(=O)Cc4ccccc4)CC(=O)N32)C(=O)C(=O)NCC(=O)O)CC1 (some centres undefined)
Prothrombin
  pKi: 8.67
Serine protease 1
  pKi: 4.54

## N[C@H]1CC[C@H](C(NC(=O)[C@@H]2CC[C@H]3CN(S(=O)(=O)Cc4ccccc4)CC(=O)N32)C(=O)c2nnnn2CC(=O)O)CC1 (some centres undefined)
Serine protease 1
  pKi: < 3.40

## Cn1nnnc1C(=O)C(NC(=O)[C@@H]1CC[C@H]2CN(S(=O)(=O)Cc3ccccc3)CC(=O)N21)[C@H]1CC[C@H](N)CC1 (some centres undefined)
Prothrombin
  pKi: 8.30
Rattus norvegicus [1]
  APTT: 46 s
Rattus norvegicus [2]
  MOT: 46 min
Rattus norvegicus [3]
  TT: 322 s
Serine protease 1
  pKi: 4.46

## CCSC(=O)C(=O)C(NC(=O)[C@@H]1CC[C@H]2CN(S(=O)(=O)Cc3ccccc3)CC(=O)N21)[C@H]1CC[C@H](N)CC1 (some centres undefined)
[4]
  bioavailability: 0.3%
Prothrombin
  pKi: 9.59
Rattus norvegicus [1]
  APTT: 33 s
Rattus norvegicus [2]
  MOT: 49 min
Rattus norvegicus [3]
  TT: 999 s
Serine protease 1
  pKi: 6.82
